Measured values as given in article PMC11352108, “Anti-Biofilm and Anti-Inflammatory Properties of the Truncated Analogs of the Scorpion Venom-Derived Peptide IsCT against Pseudomonas aeruginosa” (Antibiotics, 2024).
Where no end group is shown, it is not given here.

Tests used:
[1] = tested on: sheep red blood cells; assay: Hemolytic assay; assay type: cell-based; settings: for Hemolytic activity (in words): sheep erythrocytes, concentrations as high as 150 μM; for % Hemolysis, Exp.1: replicate Exp.1; for % Hemolysis, Exp.2: replicate Exp.2; for % Hemolysis, Exp.3: replicate Exp.3
Method: A hemolytic assay was carried out according to the previously described method using commercially sourced sheep red blood cells (Professional Nanomed Company Limited, Bangkok, Thailand). One hundred microliters of a 2% sheep red blood cell suspension prepared in phosphate-buffered saline (PBS) pH 7.4. was incubated for 1 h at 37 °C with 100 μL of the studied peptides (final concentration of 150 µM). After centrifugation at 1000× g for 5 min, 100 μL of supernatant was transferred to new 96-well plates, and the release of hemoglobin was monitored, measuring an optical density (OD) at 405 nm using a BioTek Synergy HT microplate reader. Red blood cells treated with PBS pH 7.4 were used as a negative control, while those treated with 1% Triton X-100 were used as a positive control. The percent hemolysis was calculated as follows:(1) % Hemolysis=OD405 nm of the test peptide−OD405 nm of negative control/OD405 nm of positive control−OD405 nm of negative control × 100

[2] = tested on: P. aeruginosa PAO1 biofilms; assay: Biofilm susceptibility assay (crystal violet); assay type: cell-based, Pseudomonas aeruginosa; settings: 150 μM, 24 h, 37 °C; for Decrease in P. aeruginosa biofilm biomass: 10^6 CFU/mL, OD 550 nm, compared with untreated control
Method: The effect of the truncated IsCT analogs on biofilms of P. aeruginosa was assessed using a method that was described previously. Briefly, 100 μL of the test peptides (final concentration, 150 μM) was added to each well of a 96-well microtiter plate (Nunc^TM, Roskilde, Denmark). Then, an aliquot of P. aeruginosa PAO1 culture was added to each well to obtain a final concentration of 10^6 CFU/mL. The bacterial culture alone was included as an untreated control. Following a 24-h incubation at 37 °C, unattached planktonic cells were discarded, and the wells were carefully washed twice with PBS with a pH of 7.4. Thereafter, biofilm biomasses were quantified by 0.1% crystal violet staining. After excess stains were discarded, the wells were washed with PBS pH 7.4 and left to air dry for 2 h at 37 °C. The biofilm biomass was subsequently dissolved by the addition of 30% acetic acid, and the plates were spectrophotometrically read at 550 nm using a BioTek Synergy HT microplate reader.

[3] = tested on: P. aeruginosa biofilm; settings: at 4 μM; cited from earlier work
From the text: We next determined the anti-biofilm potentials of the truncated IsCT analogs against biofilms formation of P. aeruginosa. […] Antibacterials with growth-inhibitory activity may accelerate the evolutionary pressure and ultimately lead to troublesome antibiotic resistance.

[4] = sheep red blood cells, 1 h, 37 °C, peptides 150 μM (Triton X-100 1%)

ILGKIWKSLF [IsCT-Δ7-9]
Hemolytic activity (in words) [1]: decreased hemolytic activity | % Hemolysis, Exp.1 [1, 4]: 0.18% | % Hemolysis, Exp.2 [1, 4]: 0.00% | % Hemolysis, Exp.3 [1, 4]: 1.13% | Anti-biofilm activity (in words) [2]: less pronounced

β-defensin 2: an AMP, human beta-defensin 2 (GIGDPVTCLKSGAICHPVFCPRRYKQIGTCGLPGTKCCKKP; ends and bridges not checked; cysteine pairing not given here; UniProt O15263 24-64, looked up)
Inhibition of P. aeruginosa biofilm production [3]: 40%

ILGKIWIKSLF [IsCT-Δ7-8]
Hemolytic activity (in words) [1]: decreased hemolytic activity | % Hemolysis, Exp.1 [1, 4]: 0.25% | % Hemolysis, Exp.2 [1, 4]: 2.48% | % Hemolysis, Exp.3 [1, 4]: 3.66% | Anti-biofilm activity (in words) [2]: less pronounced

Triton X-100 [reference compound]
% Hemolysis ([1]; 2% sheep red blood cells in PBS pH 7.4, 1 h, 37 °C, peptides 150 μM (Triton X-100 1%, positive control), OD 405 nm, mean ± SEM of independent experiments): 100.00 ± 0.00% | % Hemolysis, Mean ([1]; sheep red blood cells, 1 h, 37 °C, peptides 150 μM (Triton X-100 1%), mean of 3 experiments (supplement)): 100.00% | % Hemolysis, Exp.1 [1, 4]: 100.00% | % Hemolysis, Exp.2 [1, 4]: 100.00% | % Hemolysis, Exp.3 [1, 4]: 100.00%

ILGKIGIKSLF [IsCT-Δ6-7]
Hemolytic activity (in words) [1]: decreased hemolytic activity | % Hemolysis, Exp.1 [1, 4]: 0.00% | % Hemolysis, Exp.2 [1, 4]: 0.0473% | % Hemolysis, Exp.3 [1, 4]: 2.44% | Decrease in P. aeruginosa biofilm biomass [2]: 28.27%

ILGKIKSLF [IsCT-Δ6-9]
Hemolytic activity (in words) [1]: decreased hemolytic activity | % Hemolysis, Exp.1 [1, 4]: 0.38% | % Hemolysis, Exp.2 [1, 4]: 0.00% | % Hemolysis, Exp.3 [1, 4]: 1.03% | Decrease in P. aeruginosa biofilm biomass [2]: 26.45%
